The values below are quoted from earlier work in patent publication US20090285878A1, “Compositions and methods for stabilizing liposomal drug formulations” (Tekmira Pharmaceuticals Corporation, priority 2004, published 2009).

SMILES strings stand for the structures.

Regarding `CC[C@@]1(O)C(=O)OCc2c1cc1n(c2=O)Cc2cc3c(CN(C)C)c(O)ccc3nc2-1` [Topotecan], the Lactone hydrolyzed result (above pH 9) is “more than 95%”. In addition, the “Open (carboxylate) form of lactone ring” value (below pH 4) is given as “no open form is present”.
